Experimental data: patent publication US20240287138A1, “CYCLIC PEPTIDES FOR INHIBITING TNF RECEPTOR 1 ACTIVITY” (Merck Sharp & Dohme LLC, priority 2023, published 2024)
Read-outs that look alike come from different tables or passages of the source. Numbered stars: 1 amine (or outer) side, 2 acyl side, 3 side chain; on linkers, the order of the positions; unused ones are H or OH. Bridge positions count the residues as written; N and C are the ends. Square brackets hold non-standard residues; d marks the D form. Peptide text beside a SMILES is read from it. * marks the point of attachment. Trp(βS-Me,7-OMe) = COc1cccc2c([C@H](C)[C@H](N)C(=O)O)c[nH]c12; Phe(4-CH2CH2COOH) = N[C@@H](Cc1ccc(CCC(=O)O)cc1)C(=O)O; Phe(4-SO2NH2) = N[C@@H](Cc1ccc(S(N)(=O)=O)cc1)C(=O)O; Phe(2-F,4-COOH) = N[C@@H](Cc1ccc(C(=O)O)cc1F)C(=O)O; Trp(7-CN) = N#Cc1cccc2c(C[C@H](N)C(=O)O)c[nH]c12; Trp(7-Cl) = N[C@@H](Cc1c[nH]c2c(Cl)cccc12)C(=O)O; Phe(4-CONH2) = NC(=O)c1ccc(C[C@H](N)C(=O)O)cc1; Phe(4-COOH) = N[C@@H](Cc1ccc(C(=O)O)cc1)C(=O)O; Trp(7-aza) = N[C@@H](Cc1c[nH]c2ncccc12)C(=O)O; Pip(5R-OH) = O=C(O)[C@@H]1CC[C@@H](O)CN1; X1 = O=C([C@@H]1CC[C@H](N[*:1])C1)[*:2]; NMeT = CN[C@H](C(=O)O)[C@@H](C)O; 4Pal = N[C@@H](Cc1ccncc1)C(=O)O; NMeE = CN[C@@H](CCC(=O)O)C(=O)O; dHyp = O=C(O)[C@H]1C[C@H](O)CN1; NEtAla = CCN[C@@H](C)C(=O)O; αMeS = C[C@](N)(CO)C(=O)O; Carboxymethyl = O=C(O)C*; Nle = CCCC[C@H](N)C(=O)O; Sar = CNCC(=O)O

Assays:
human TNFR2 ECD protein = biological target: T1, human TNFR2 ECD protein (Homo sapiens, UniProt P20333); assay: SPR off-target binding (selectivity) to human TNFR2 ECD
T1 construct: HRV 3C protease cleavage site (C); 6His (C, cleaved yes); made in house; host or cells: Sf21 insect cells (baculovirus), secreted
T1 sequence (P20333 23-257): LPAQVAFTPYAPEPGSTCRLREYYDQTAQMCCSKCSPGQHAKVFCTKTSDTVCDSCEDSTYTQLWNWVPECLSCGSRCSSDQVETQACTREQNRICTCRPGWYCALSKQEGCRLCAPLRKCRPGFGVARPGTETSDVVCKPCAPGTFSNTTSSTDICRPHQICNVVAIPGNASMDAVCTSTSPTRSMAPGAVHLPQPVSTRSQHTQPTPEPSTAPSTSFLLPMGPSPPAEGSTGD
Procedure, shortened: (§1)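 Biotinylated human TNFR1 or TNFR2 ECD (C-terminal Avi-tag, Sf21-expressed) captured on a regenerable streptavidin chip; peptide analytes flowed in 10 mM HEPES pH 7.4, 150 mM NaCl, 3 mM EDTA, 0.05% P20, 2% DMSO. kon and koff measured; affinity calculated from the rate constants.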

[1] = biological target: T2, human TNFR1 extracellular domain (ECD) protein (Homo sapiens, UniProt P19438); assay: SPR binding affinity to captured human TNFR1 ECD
T2 construct: HRV 3C protease cleavage site (C); 6His (C, cleaved yes); made in house; host or cells: Sf21 insect cells (baculovirus), secreted
T2 sequence (P19438 30-211): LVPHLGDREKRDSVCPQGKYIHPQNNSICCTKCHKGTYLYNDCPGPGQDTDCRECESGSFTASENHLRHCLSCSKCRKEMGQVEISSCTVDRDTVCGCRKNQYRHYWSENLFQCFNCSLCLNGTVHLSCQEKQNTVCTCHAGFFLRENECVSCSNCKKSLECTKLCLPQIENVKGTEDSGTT
Procedure, shortened: as §1

[2] = biological target: T3, human soluble TNFR1 (sTNFR1) (Homo sapiens, UniProt P19438); assay: Human sTNFR1-peptide displacement assay (LanthaScreen Eu TR-FRET binding assay)
T3 construct: made in house; host or cells: Sf21 (baculovirus)
T3 sequence (P19438 with tags, fused parts or gaps): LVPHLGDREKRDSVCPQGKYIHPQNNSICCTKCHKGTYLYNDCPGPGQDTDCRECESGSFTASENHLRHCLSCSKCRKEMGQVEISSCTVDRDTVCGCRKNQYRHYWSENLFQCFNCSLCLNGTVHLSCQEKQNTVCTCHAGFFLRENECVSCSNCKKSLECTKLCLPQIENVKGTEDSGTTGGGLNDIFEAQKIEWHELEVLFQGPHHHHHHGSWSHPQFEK
Procedure, shortened: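 Readout is the 665/615 nm TR-FRET ratio (Eu anti-His donor, streptavidin-Alexa647 acceptor), normalized to DMSO and saturating displacer, fit by Morrison-based five-parameter logistic for Kd^app. His-tagged sTNFR1 (1-211) prebound to 100 nM biotinylated peptide SEQ ID NO.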

[3] = biotinylated human TNFR2 ECD on streptavidin chip, read-out: SPR hTNFR2 KD
[4] = biotinylated human TNFR1 ECD on streptavidin chip, from kon and koff, read-out: SPR hTNFR1 KD
[5] = displacement of biotinylated peptide SEQ ID NO. 1 from sTNFR1, 20 point titration, 5-parameter fit based on Morrison equation (tight binding), read-out: TR-FRET Kd^app

With `CCCC[C@@H]1NC(=O)CSC[C@@H](C(N)=O)NC(=O)[C@H]([C@@H](C)c2c[nH]c3c(OC)cccc23)NC(=O)CN(C)C(=O)[C@H](Cc2ccc(O)cc2)NC(=O)[C@H](Cc2ccc(C(=O)O)cc2)NC(=O)[C@](C)(CO)NC(=O)[C@H](Cc2c[nH]c3c(Cl)cccc23)NC(=O)[C@H](Cc2ccncc2)NC(=O)[C@H](CC(N)=O)NC(=O)[C@H](CCC(=O)O)N(C)C(=O)[C@H](Cc2c[nH]c3ncccc23)NC(=O)[C@H]([C@@H](C)O)N(C)C(=O)[C@H](Cc2ccncc2)NC1=O` [SEQ ID NO. 29] ({CH2CO}-[Nle][4Pal][NMeT][Trp(7-aza)][NMeE]N[4Pal][Trp(7-Cl)][αMeS][Phe(4-COOH)]Y[Sar][Trp(βS-Me,7-OMe)]C-NH2; thioether N-14) the Kd (human TNFR2 ECD protein) was > 1000 nM, the Kd [1] was 0.28 nM and the Kd [2] was 0.65 nM.
In the case of `CCCC[C@@H]1NC(=O)[C@@H]2CC[C@@H](C2)NC(=O)[C@H]([C@@H](C)c2c[nH]c3c(OC)cccc23)NC(=O)CN(C)C(=O)[C@H](Cc2ccc(CCC(=O)O)cc2)NC(=O)[C@H](Cc2ccc(S(N)(=O)=O)cc2)NC(=O)[C@](C)(CO)NC(=O)[C@H](Cc2c[nH]c3c(C#N)cccc23)NC(=O)[C@H](Cc2ccc(OCC(=O)O)cc2)NC(=O)[C@H](CC(N)=O)NC(=O)[C@H]2C[C@H](O)CN2C(=O)[C@H](Cc2c[nH]c3ncccc23)NC(=O)[C@@H]2CC[C@@H](O)CN2C(=O)[C@H](Cc2ccncc2)NC1=O` [SEQ ID NO. 30] (cyclo([4Pal][Pip(5R-OH)][Trp(7-aza)][dHyp]NY(Carboxymethyl)[Trp(7-CN)][αMeS][Phe(4-SO2NH2)][Phe(4-CH2CH2COOH)][Sar][Trp(βS-Me,7-OMe)][X1][Nle])), the Kd (human TNFR2 ECD protein; [3]) is reported as > 1000 nM, the Kd [1, 4] is reported as 0.05 nM and the Kd [2, 5] is reported as 0.07 nM.
`CCCC[C@@H]1NC(=O)CSC[C@@H](C(N)=O)NC(=O)[C@H]([C@@H](C)c2c[nH]c3c(OC)cccc23)NC(=O)CN(C)C(=O)[C@H](Cc2ccc(O)cc2)NC(=O)[C@H](Cc2ccc(C(=O)O)cc2)NC(=O)[C@](C)(CO)NC(=O)[C@H](Cc2c[nH]c3c(Cl)cccc23)NC(=O)[C@H](Cc2ccncc2)NC(=O)[C@H](CC(N)=O)NC(=O)[C@H](CCC(=O)O)N(C)C(=O)[C@H](Cc2c[nH]c3ncccc23)NC(=O)[C@H](C)N(CC)C(=O)[C@H](Cc2ccncc2)NC1=O` [SEQ ID NO. 38] ({CH2CO}-[Nle][4Pal][NEtAla][Trp(7-aza)][NMeE]N[4Pal][Trp(7-Cl)][αMeS][Phe(4-COOH)]Y[Sar][Trp(βS-Me,7-OMe)]C-NH2; thioether N-14) was tested, and the Kd (human TNFR2 ECD protein) was > 1000 nM, the Kd [1] was 0.34 nM and the Kd [2] was 0.7 nM.
`CCCC[C@@H]1NC(=O)[C@@H]2CC[C@@H](C2)NC(=O)[C@H]([C@@H](C)c2c[nH]c3c(OC)cccc23)NC(=O)CN(C)C(=O)[C@H](Cc2ccc(C(=O)O)cc2F)NC(=O)[C@H](Cc2ccc(C(N)=O)cc2)NC(=O)[C@](C)(CO)NC(=O)[C@H](Cc2c[nH]c3c(Cl)cccc23)NC(=O)[C@H](Cc2ccc(C(=O)O)cc2F)NC(=O)[C@H](CC(N)=O)NC(=O)[C@H]2C[C@H](O)CN2C(=O)[C@H](Cc2c[nH]c3ccccc23)NC(=O)[C@@H]2CC[C@@H](O)CN2C(=O)[C@H](Cc2ccncc2)NC1=O` [SEQ ID NO. 41] (cyclo([4Pal][Pip(5R-OH)]W[dHyp]N[Phe(2-F,4-COOH)][Trp(7-Cl)][αMeS][Phe(4-CONH2)][Phe(2-F,4-COOH)][Sar][Trp(βS-Me,7-OMe)][X1][Nle])) was tested, and the Kd (human TNFR2 ECD protein) was > 1000 nM, the Kd [1] was 0.12 nM and the Kd [2] was 0.07 nM.
For `CCCC[C@@H]1NC(=O)[C@@H]2CC[C@@H](C2)NC(=O)[C@H]([C@@H](C)c2c[nH]c3c(OC)cccc23)NC(=O)CN(C)C(=O)[C@H](Cc2ccc(C(N)=O)cc2)NC(=O)[C@H](Cc2ccc(C(N)=O)cc2)NC(=O)[C@](C)(CO)NC(=O)[C@H](Cc2c[nH]c3c(C#N)cccc23)NC(=O)[C@H](Cc2ccc(C(=O)O)cc2)NC(=O)[C@H](CC(N)=O)NC(=O)[C@H]2C[C@H](O)CN2C(=O)[C@H](Cc2c[nH]c3ccccc23)NC(=O)[C@@H]2CC[C@@H](O)CN2C(=O)[C@H](Cc2ccncc2)NC1=O` [SEQ ID NO. 45] (cyclo([4Pal][Pip(5R-OH)]W[dHyp]N[Phe(4-COOH)][Trp(7-CN)][αMeS][Phe(4-CONH2)][Phe(4-CONH2)][Sar][Trp(βS-Me,7-OMe)][X1][Nle])), the Kd (human TNFR2 ECD protein; [3]) was > 1000 nM, the Kd [1, 4] was 0.01 nM and the Kd [2, 5] was 0.05 nM.
